{"source": "patent US20060069132A1", "about": "“Azolecarboxamide herbicides” (priority 2004, published 2006)", "key": {"lambsquarters": {"tested_on": "lambsquarters", "assay": "Test B pre-/postemergence herbicide test", "format": "in vivo, Chenopodium album", "method_in_brief": "(§1)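 Greenhouse pot assay with simultaneous preemergence (treated seed) and postemergence (2–18 cm seedlings) applications of surfactant-containing, non-phytotoxic solvent formulations. Response scored visually 13–15 days later on a 0–100 scale, 100 meaning complete control.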"}, "barnyardgrass [1]": {"tested_on": "barnyardgrass", "assay": "Test A pre-/postemergence herbicide test", "format": "in vivo, Echinochloa crus-galli", "conditions": "for Plant response rating, Barnyardgrass: Postemergence; for Barnyardgrass plant response rating: Preemergence", "method_in_brief": "(§2)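 Sandy loam soil given preemergence directed spray; plants at 2 to 10 cm, one- to two-leaf stage, sprayed to runoff postemergence, compounds in non-phytotoxic solvent with surfactant. Injury rated visually versus untreated controls after about ten greenhouse days, 0 (no effect) to 100 (complete control); dash means not tested.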"}, "[2]": {"tested_on": "small flower umbrella sedge", "assay": "Test B flooded paddy test", "format": "in vivo, Cyperus difformis", "conditions": "1000 g ai/ha, visual rating, scale 0 to 100 (0 no effect, 100 complete control), 13 to 15 days", "method_in_brief": "(§3)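 Read-out: visual comparison with controls, scored 0 to 100, where 100 means complete control and 0 no effect. Formulated chemicals were applied postemergence to plants 2–18 cm tall (1- to 4-leaf), or to flooded-paddy plants at the 2-leaf stage, then held 13 to 15 days under glass.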"}, "redroot pigweed": {"tested_on": "redroot pigweed", "assay": "Test A pre-/postemergence herbicide test", "format": "in vivo, Amaranthus retroflexus", "conditions": "for Plant response rating, Pigweed: Postemergence; for Pigweed plant response rating: Preemergence", "method_in_brief": "as §2"}, "velvetleaf [3]": {"tested_on": "velvetleaf", "assay": "Test A pre-/postemergence herbicide test", "format": "in vivo, Abutilon theophrasti", "conditions": "for Plant response rating, Velvetleaf: Postemergence; for Velvetleaf plant response rating: Preemergence", "method_in_brief": "as §2"}, "wheat": {"tested_on": "wheat", "assay": "Test B postemergence herbicide test", "format": "in vivo, Triticum aestivum", "conditions": "Postemergence, 500 g ai/ha; visual rating after 13 to 15 days, scale 0 (no effect) to 100 (complete control)", "method_in_brief": "as §3"}, "morningglory [4]": {"tested_on": "morningglory", "assay": "Test B pre-/postemergence herbicide test", "format": "in vivo, Ipomoea coccinea", "method_in_brief": "(§4)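 Pre: seeds sown, then sprayed. Post: 1–4-leaf plants (2–18 cm) sprayed at the same time. Paddy: flooded, treated at 2-leaf stage. Formulation: non-phytotoxic solvent with surfactant. Greenhouse 13–15 days; visual 0–100 score relative to controls.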"}, "giant foxtail [5]": {"tested_on": "giant foxtail", "assay": "Test A pre-/postemergence herbicide test", "format": "in vivo, Setaria faberi", "conditions": "for Plant response rating, Foxtail, Giant: Postemergence; for Foxtail, Giant plant response rating: Preemergence", "method_in_brief": "as §2"}, "large crabgrass [6]": {"tested_on": "large crabgrass", "assay": "Test B pre-/postemergence herbicide test", "format": "in vivo, Digitaria sanguinalis", "method_in_brief": "as §1"}, "barnyardgrass [7]": {"tested_on": "barnyardgrass", "assay": "Test B flooded paddy test", "format": "in vivo, Echinochloa crus-galli", "conditions": "1000 g ai/ha, visual rating, scale 0 to 100 (0 no effect, 100 complete control), 13 to 15 days", "method_in_brief": "as §3"}, "pigweed": {"tested_on": "pigweed", "assay": "Test B pre-/postemergence herbicide test", "format": "in vivo, Amaranthus retroflexus", "method_in_brief": "as §1"}, "Surinam grass": {"tested_on": "Surinam grass", "assay": "Test B pre-/postemergence herbicide test", "format": "in vivo, Urochloa decumbens", "method_in_brief": "as §1"}, "giant foxtail [8]": {"tested_on": "giant foxtail", "assay": "Test B pre-/postemergence herbicide test", "format": "in vivo, Setaria faberi", "method_in_brief": "as §1"}, "large crabgrass [9]": {"tested_on": "large crabgrass", "assay": "Test A pre-/postemergence herbicide test", "format": "in vivo, Digitaria sanguinalis", "conditions": "for Plant response rating, Crabgrass, Large: Postemergence; for Crabgrass, Large plant response rating: Preemergence", "method_in_brief": "as §2"}, "rice": {"tested_on": "rice", "assay": "Test B flooded paddy test", "format": "in vivo, Oryza sativa", "conditions": "1000 g ai/ha, visual rating, scale 0 to 100 (0 no effect, 100 complete control), 13 to 15 days", "method_in_brief": "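Greenhouse test; postemergence application to plants at 1–4 leaves (2–18 cm); paddy species at 2 leaves; evaluated visually vs controls at 13–15 days; scale 0–100 (100 = complete control).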"}, "velvetleaf [10]": {"tested_on": "velvetleaf", "assay": "Test B pre-/postemergence herbicide test", "format": "in vivo, Abutilon theophrasti", "method_in_brief": "as §1"}, "blackgrass": {"tested_on": "blackgrass", "assay": "Test B postemergence herbicide test", "format": "in vivo, Alopecurus myosuroides", "conditions": "Postemergence, scale 0 (no effect) to 100 (complete control)", "method_in_brief": "as §3"}, "corn": {"tested_on": "corn", "assay": "Test B pre-/postemergence herbicide test", "format": "in vivo, Zea mays", "conditions": "Preemergence, 500 g ai/ha; scale 0 to 100", "method_in_brief": "as §1"}, "morningglory [11]": {"tested_on": "morningglory", "assay": "Test A pre-/postemergence herbicide test", "format": "in vivo, Ipomoea spp.", "conditions": "for Plant response rating, Morningglory: Postemergence; for Morningglory plant response rating: Preemergence", "method_in_brief": "as §2"}, "ducksalad": {"tested_on": "ducksalad", "assay": "Test B flooded paddy test", "format": "in vivo, Heteranthera limosa", "conditions": "1000 g ai/ha, visual rating, scale 0 to 100 (0 no effect, 100 complete control), 13 to 15 days", "method_in_brief": "as §3"}, "wild oat": {"tested_on": "wild oat", "assay": "Test B postemergence herbicide test", "format": "in vivo, Avena fatua", "conditions": "Postemergence, scale 0 (no effect) to 100 (complete control)", "method_in_brief": "as §3"}, "cocklebur": {"tested_on": "cocklebur", "assay": "Test B pre-/postemergence herbicide test", "format": "in vivo, Xanthium strumarium", "method_in_brief": "as §4"}, "barnyardgrass [12]": {"tested_on": "barnyardgrass", "assay": "Test B pre-/postemergence herbicide test", "format": "in vivo, Echinochloa crus-galli", "method_in_brief": "as §4"}, "[13]": {"conditions": "Postemergence, 125 g ai/ha, scale 0 (no effect) to 100 (complete control)"}, "[14]": {"conditions": "Postemergence, 500 g ai/ha, visual rating after 13 to 15 days, scale 0 (no effect) to 100 (complete control)"}, "[15]": {"conditions": "Preemergence, 500 g ai/ha, scale 0 to 100"}, "[16]": {"conditions": "preemergence, 125 g ai/ha, 0 to 100 scale, 0 is no effect, 100 is complete control"}, "[17]": {"conditions": "500 g ai/ha, 0 to 100 scale, 0 no effect, 100 complete control"}, "[18]": {"conditions": "2000 g ai/ha, 0 to 100 scale, 0 no effect, 100 complete control"}, "[19]": {"conditions": "500 g ai/ha, visual rating, 0 to 100 scale (0 no effect, 100 complete control)"}, "[20]": {"conditions": "500 g ai/ha, visual rating after 13 to 15 days"}}, "data": [{"smiles": "CCN(CC)C(=O)c1cccc(NC(=O)c2cc(C(C)(C)C)nn2CCF)c1", "note": "[Compound 36]", "values": [{"measurement": "Lambsquarters plant response rating", "setting": "lambsquarters; [13]", "result": 80}, {"measurement": "Plant response rating, Lambsquarters", "setting": "lambsquarters; [14]", "result": 90}, {"measurement": "Lambsquarters plant response rating", "setting": "lambsquarters; [15]", "result": 100}, {"measurement": "Plant response rating, Lambsquarters", "setting": "lambsquarters; [16]", "result": 80}, {"measurement": "Plant response rating, Barnyardgrass", "setting": "barnyardgrass [1]; [17]", "result": 35}, {"measurement": "Plant response rating, Barnyardgrass", "setting": "barnyardgrass [1]; [18]", "result": 80}, {"measurement": "Barnyardgrass plant response rating", "setting": "barnyardgrass [1]; [19]", "result": 45}, {"measurement": "Barnyardgrass plant response rating", "setting": "barnyardgrass [1]; [18]", "result": 75}, {"measurement": "Sedge, Umbrella plant response rating", "setting": "[2]", "result": 60}, {"measurement": "Plant response rating, Pigweed", "setting": "redroot pigweed; [17]", "result": 80}, {"measurement": "Plant response rating, Pigweed", "setting": "redroot pigweed; [18]", "result": 85}, {"measurement": "Pigweed plant response rating", "setting": "redroot pigweed; [19]", "result": 95}, {"measurement": "Pigweed plant response rating", "setting": "redroot pigweed; [18]", "result": 100}, {"measurement": "Plant response rating, Velvetleaf", "setting": "velvetleaf [3]; [17]", "result": 15}, {"measurement": "Plant response rating, Velvetleaf", "setting": "velvetleaf [3]; [18]", "result": 20}, {"measurement": "Velvetleaf plant response rating", "setting": "velvetleaf [3]; [19]", "result": 20}, {"measurement": "Velvetleaf plant response rating", "setting": "velvetleaf [3]; [18]", "result": 90}, {"measurement": "Plant response rating, Wheat", "setting": "wheat", "result": 30}, {"measurement": "Morningglory plant response rating", "setting": "morningglory [4]; [15]", "result": 10}, {"measurement": "Plant response rating, Morningglory", "setting": "morningglory [4]; [16]", "result": 10}, {"measurement": "Plant response rating, Foxtail, Giant", "setting": "giant foxtail [5]; [17]", "result": 20}, {"measurement": "Plant response rating, Foxtail, Giant", "setting": "giant foxtail [5]; [18]", "result": 35}, {"measurement": "Foxtail, Giant plant response rating", "setting": "giant foxtail [5]; [19]", "result": 5}, {"measurement": "Foxtail, Giant plant response rating", "setting": "giant foxtail [5]; [18]", "result": 85}, {"measurement": "Crabgrass, Large plant response rating", "setting": "large crabgrass [6]; [13]", "result": 20}, {"measurement": "Plant response rating, Crabgrass, Large", "setting": "large crabgrass [6]; [14]", "result": 20}, {"measurement": "Crabgrass, Large plant response rating", "setting": "large crabgrass [6]; [15]", "result": 20}, {"measurement": "Barnyardgrass plant response rating", "setting": "barnyardgrass [7]", "result": 70}, {"measurement": "Plant response rating, Pigweed", "setting": "pigweed; [14]", "result": 90}, {"measurement": "Pigweed plant response rating", "setting": "pigweed; [15]", "result": 100}, {"measurement": "Plant response rating, Pigweed", "setting": "pigweed; [16]", "result": 90}, {"measurement": "Plant response rating, Surinam Grass", "setting": "Surinam grass; [14]", "result": 10}, {"measurement": "Surinam Grass plant response rating", "setting": "Surinam grass; [15]", "result": 50}, {"measurement": "Plant response rating, Surinam Grass", "setting": "Surinam grass; [16]", "result": 10}, {"measurement": "Foxtail, Giant plant response rating", "setting": "giant foxtail [8]; [13]", "result": 20}, {"measurement": "Plant response rating, Foxtail, Giant", "setting": "giant foxtail [8]; [14]", "result": 30}, {"measurement": "Foxtail, Giant plant response rating", "setting": "giant foxtail [8]; [15]", "result": 30}, {"measurement": "Plant response rating, Foxtail, Giant", "setting": "giant foxtail [8]; [16]", "result": 0}, {"measurement": "Plant response rating, Crabgrass, Large", "setting": "large crabgrass [9]; [17]", "result": 10}, {"measurement": "Plant response rating, Crabgrass, Large", "setting": "large crabgrass [9]; [18]", "result": 10}, {"measurement": "Crabgrass, Large plant response rating", "setting": "large crabgrass [9]; [19]", "result": 10}, {"measurement": "Crabgrass, Large plant response rating", "setting": "large crabgrass [9]; [18]", "result": 70}, {"measurement": "Rice plant response rating", "setting": "rice", "result": 40}, {"measurement": "Plant response rating, Velvetleaf", "setting": "velvetleaf [10]; [14]", "result": 40}, {"measurement": "Velvetleaf plant response rating", "setting": "velvetleaf [10]; [15]", "result": 50}, {"measurement": "Plant response rating, Velvetleaf", "setting": "velvetleaf [10]; [16]", "result": 20}, {"measurement": "Blackgrass plant response rating", "setting": "blackgrass; 125 g ai/ha", "result": 10}, {"measurement": "Plant response rating, Blackgrass", "setting": "blackgrass; [20]", "result": 20}, {"measurement": "Corn plant response rating", "setting": "corn", "result": 10}, {"measurement": "Plant response rating, Morningglory", "setting": "morningglory [11]; [17]", "result": 10}, {"measurement": "Plant response rating, Morningglory", "setting": "morningglory [11]; [18]", "result": 10}, {"measurement": "Morningglory plant response rating", "setting": "morningglory [11]; [19]", "result": 20}, {"measurement": "Morningglory plant response rating", "setting": "morningglory [11]; [18]", "result": 70}, {"measurement": "Ducksalad plant response rating", "setting": "ducksalad", "result": 90}, {"measurement": "Oat, Wild plant response rating", "setting": "wild oat; 125 g ai/ha", "result": 20}, {"measurement": "Plant response rating, Oat, Wild", "setting": "wild oat; [20]", "result": 20}, {"measurement": "Cocklebur plant response rating", "setting": "cocklebur; [13]", "result": 30}, {"measurement": "Plant response rating, Cocklebur", "setting": "cocklebur; [14]", "result": 50}, {"measurement": "Cocklebur plant response rating", "setting": "cocklebur; [15]", "result": 0}, {"measurement": "Barnyardgrass plant response rating", "setting": "barnyardgrass [12]; [13]", "result": 20}, {"measurement": "Plant response rating, Barnyardgrass", "setting": "barnyardgrass [12]; [14]", "result": 20}, {"measurement": "Barnyardgrass plant response rating", "setting": "barnyardgrass [12]; [15]", "result": 80}]}]}
